Experimental data published in paper PMC8892849 (ACS Omega, 2022).

Experiments:
[1] = test system: non-small cell lung cancer cells (A-549); assay: In vitro cytotoxic assay; type: cell-based, human; details: for IC50: Homo sapiens, A549, 48 h, read-out: IC50 (mean ± SEM) A-549; for SI (selectivity index) A-549: normal PBMC vs A-549
[2] = In vitro cytotoxic assay; type: cell-based; details: normal peripheral blood mononuclear cells (PBMCs)
[3] = test system: prostate carcinoma (PC-3); assay: In vitro cytotoxic assay; type: cell-based, human; details: for IC50: Homo sapiens, 48 h, read-out: IC50 (mean ± SEM) PC-3; for SI (selectivity index) PC-3: normal PBMC vs PC-3
[4] = test system: hepatocellular carcinoma (HepG-2); assay: In vitro cytotoxic assay; type: cell-based, human; details: for IC50: Homo sapiens, HepG2, 48 h, read-out: IC50 (mean ± SEM) HepG-2; for SI (selectivity index) HepG-2: normal PBMC vs HepG-2
[5] = test system: breast adenocarcinoma (MCF-7); assay: In vitro cytotoxic assay; type: cell-based, human; details: for IC50: Homo sapiens, MCF7, 48 h, read-out: IC50 (mean ± SEM) MCF-7; for SI (selectivity index) MCF-7: normal PBMC vs MCF-7
[6] = molecular target: EGFR^T790M (Homo sapiens, UniProt P00533, T790M); assay: HTRF kinase inhibition assay, EGFR^T790M
[7] = molecular target: EGFR^WT (Homo sapiens, UniProt P00533); assay: HTRF kinase inhibition assay, EGFR^WT
[8] = test system: p53 ubiquitination; assay: In vivo p53 ubiquitination inhibition of MCF-7 cells; type: cell-based; details: Homo sapiens, MCF7, 6 h, read-out: IC50 (mean ± SEM) p53 ubiquitination

Sequence of EGFR^T790M (P00533 25-1210 T790M): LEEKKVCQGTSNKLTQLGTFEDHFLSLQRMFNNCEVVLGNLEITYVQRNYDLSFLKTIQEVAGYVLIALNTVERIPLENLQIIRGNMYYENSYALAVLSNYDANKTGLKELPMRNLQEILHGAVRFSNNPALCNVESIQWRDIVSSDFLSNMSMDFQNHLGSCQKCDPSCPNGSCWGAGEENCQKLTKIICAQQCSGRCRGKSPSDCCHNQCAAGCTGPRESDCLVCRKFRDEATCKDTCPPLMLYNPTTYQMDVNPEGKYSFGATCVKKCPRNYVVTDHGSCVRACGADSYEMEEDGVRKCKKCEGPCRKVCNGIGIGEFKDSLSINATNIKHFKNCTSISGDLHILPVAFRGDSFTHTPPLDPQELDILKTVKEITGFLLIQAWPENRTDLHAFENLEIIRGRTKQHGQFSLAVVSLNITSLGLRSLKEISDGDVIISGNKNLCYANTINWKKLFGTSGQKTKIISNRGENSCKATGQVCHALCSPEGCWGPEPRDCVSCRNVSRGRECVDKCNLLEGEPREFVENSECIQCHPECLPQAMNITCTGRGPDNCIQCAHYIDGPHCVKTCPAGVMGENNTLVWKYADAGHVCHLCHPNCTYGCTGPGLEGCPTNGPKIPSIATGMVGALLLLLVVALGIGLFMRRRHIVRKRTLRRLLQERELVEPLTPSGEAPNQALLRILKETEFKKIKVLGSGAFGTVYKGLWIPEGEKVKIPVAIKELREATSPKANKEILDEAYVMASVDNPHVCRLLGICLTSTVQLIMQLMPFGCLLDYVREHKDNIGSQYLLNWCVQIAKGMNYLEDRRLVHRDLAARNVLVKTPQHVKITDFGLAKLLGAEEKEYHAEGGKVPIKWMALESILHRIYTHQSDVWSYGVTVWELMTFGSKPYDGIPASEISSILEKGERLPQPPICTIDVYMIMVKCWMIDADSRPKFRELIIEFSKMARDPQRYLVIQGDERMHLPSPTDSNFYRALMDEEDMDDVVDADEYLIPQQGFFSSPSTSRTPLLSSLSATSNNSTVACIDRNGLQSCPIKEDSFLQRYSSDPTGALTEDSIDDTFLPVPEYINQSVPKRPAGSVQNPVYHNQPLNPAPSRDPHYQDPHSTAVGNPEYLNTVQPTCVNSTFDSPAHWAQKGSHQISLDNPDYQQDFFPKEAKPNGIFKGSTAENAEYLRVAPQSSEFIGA
Sequence of EGFR^WT (P00533 25-1210): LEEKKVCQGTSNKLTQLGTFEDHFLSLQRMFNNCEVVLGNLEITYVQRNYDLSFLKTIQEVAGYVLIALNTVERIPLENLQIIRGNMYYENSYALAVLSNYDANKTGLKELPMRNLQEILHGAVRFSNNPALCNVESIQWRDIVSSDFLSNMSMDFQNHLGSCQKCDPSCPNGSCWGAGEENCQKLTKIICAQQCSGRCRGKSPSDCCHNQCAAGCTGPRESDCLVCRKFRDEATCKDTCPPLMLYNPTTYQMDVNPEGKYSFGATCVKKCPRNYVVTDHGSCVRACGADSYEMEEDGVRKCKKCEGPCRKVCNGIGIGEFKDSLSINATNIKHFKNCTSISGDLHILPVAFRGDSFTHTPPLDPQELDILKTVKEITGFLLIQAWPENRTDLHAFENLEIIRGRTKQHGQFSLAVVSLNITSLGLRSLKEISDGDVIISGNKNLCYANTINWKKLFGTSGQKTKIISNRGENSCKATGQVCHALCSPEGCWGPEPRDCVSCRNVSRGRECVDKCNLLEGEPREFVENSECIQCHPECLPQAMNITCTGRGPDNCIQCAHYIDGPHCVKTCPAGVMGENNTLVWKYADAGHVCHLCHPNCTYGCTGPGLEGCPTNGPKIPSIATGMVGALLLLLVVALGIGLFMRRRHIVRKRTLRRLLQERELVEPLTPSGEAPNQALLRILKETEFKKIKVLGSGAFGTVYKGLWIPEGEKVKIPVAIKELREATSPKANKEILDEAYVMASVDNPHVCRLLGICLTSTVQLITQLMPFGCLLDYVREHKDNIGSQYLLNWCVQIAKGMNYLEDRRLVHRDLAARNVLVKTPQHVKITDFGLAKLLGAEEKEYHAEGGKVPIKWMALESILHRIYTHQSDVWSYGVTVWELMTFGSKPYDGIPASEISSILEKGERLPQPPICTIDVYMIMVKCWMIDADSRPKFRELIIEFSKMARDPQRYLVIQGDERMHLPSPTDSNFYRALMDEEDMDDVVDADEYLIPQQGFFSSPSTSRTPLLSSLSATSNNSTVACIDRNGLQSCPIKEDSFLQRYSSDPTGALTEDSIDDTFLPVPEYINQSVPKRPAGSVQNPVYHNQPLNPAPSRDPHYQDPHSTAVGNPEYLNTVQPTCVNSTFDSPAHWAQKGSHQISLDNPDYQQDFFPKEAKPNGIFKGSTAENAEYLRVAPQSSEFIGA

| SMILES | IC50 [1] | IC50 at 48 h [2] | IC50 [3] | SI (selectivity index) A-549 [1] | IC50 [4] | SI (selectivity index) HepG-2 [4] | IC50 [5] | SI (selectivity index) MCF-7 [5] | SI (selectivity index) PC-3 [3] | IC50 [6] | IC50 [7] | IC50 [8] | folds less potency compared to erlotinib ([1]; A-549) | folds more potent than doxorubicin ([1]; A-549 cell line) | fold more potent EGFR^WT inhibitor than erlotinib ([7]; EGFR^WT) | folds more potent than doxorubicin and erlotinib ([5]; MCF-7 cells) |
| --- | --- | --- | --- | --- | --- | --- | --- | --- | --- | --- | --- | --- | --- | --- | --- | --- |
| C#Cc1cccc(Nc2ncnc3cc(OCCOC)c(OCCOC)cc23)c1 [erlotinib, reference compound] | 3.76 ± 0.2 µM | 45.8 ± 26.6 µM | 8.89 ± 0.6 µM |  |  |  |  |  |  |  |  |  |  |  |  |  |
| S=c1[nH]c(Cc2ccccc2)nc(=Nc2nccs2)[nH]1 [Compound 8b, 6-Benzyl-4-(thiazol-2-ylimino)-3,4-dihydro-1,3,5-triazine-2(1H)-thione] | 37.21 ± 0.03 µM | 197 ± 20.7 µM | 42.56 ± 0.06 µM | SI = 5.28 | 60.48 ± 0.05 µM | SI = 3.25 | 17.95 ± 0.04 µM | SI = 10.95 | SI = 4.62 |  |  |  |  |  |  |  |
| O=[N+]([O-])c1ccc(Nc2nc(Cc3ccccc3)nn2-c2ccccc2)c(Cl)c1 [Compound 6c, 3-Benzyl-N-(2-chloro-4-nitrophenyl)-1-phenyl-1H-1,2,4-triazol-5-amine] | 5.8 ± 0.05 µM | 188 ± 19.8 µM | 26.41 ± 0.05 µM | SI = 32.35 | 7.73 ± 0.04 µM | SI = 24.27 | 2.51 ± 0.06 µM | SI = 74.76 | SI = 7.10 | 0.13 ± 0.07 µM | 0.15 ± 0.02 µM | 0.00048 ± 2e-05 µM |  |  |  |  |
| c1ccc(Cc2nc(Nc3nccs3)n(-c3ccccc3)n2)cc1 [Compound 6a, N-(3-Benzyl-1-phenyl-1H-1,2,4-triazol-5-yl)thiazol-2-amine] | 5.2 ± 0.03 µM | 157 ± 16.9 µM | 16.3 ± 0.09 µM | SI = 30.27 | 10.48 ± 0.03 µM | SI = 15.02 | 4.3 ± 0.04 µM | SI = 36.61 | SI = 9.65 | 0.12 ± 0.18 µM | 0.18 ± 0.1 µM |  |  |  |  |  |
| O=c1nc(Cc2ccccc2)[nH]c(Nc2nccs2)n1 [Compound 7, 4-Benzyl-6-(thiazol-2-ylamino)-1,3,5-triazin-2(5H)-one] | 7.43 ± 0.04 µM | 165 ± 18.1 µM | 17.9 ± 0.03 µM |  | 29.75 ± 0.03 µM |  | 4.65 ± 0.07 µM |  |  | 0.18 ± 0.11 µM | 0.22 ± 0.05 µM |  | ~2 folds |  |  |  |
| O=[N+]([O-])c1ccc(N=c2nc(Cc3ccccc3)[nH]c(=S)[nH]2)c(Cl)c1 [Compound 8d, 6-Benzyl-4-((2-chloro-4-nitrophenyl)imino)-3,4-dihydro-1,3,5-triazine-2(1H)-thione] | 9.5 ± 0.06 µM | 179 ± 19 µM | 39.55 ± 0.08 µM | SI = 18.85 | 47.86 ± 0.05 µM | SI = 3.74 | 14.77 ± 0.05 µM | SI = 12.12 | SI = 4.52 |  |  |  |  |  |  |  |
| O=C(Cc1ccccc1)NC(=S)Nc1cccc(O)c1 [Compound 2d, N-((3-Hydroxyphenyl)carbamothioyl)-2-phenylacetamide] | 20.84 ± 0.04 µM | 158 ± 16.4 µM | 39.3 µM |  | 34.77 ± 0.03 µM |  | 24.74 ± 0.08 µM |  |  |  |  |  |  |  |  |  |
| O=C(Cc1ccccc1)NC(=S)Nc1ccc([N+](=O)[O-])cc1Cl [Compound 2e, N-((2-Chloro-4-nitrophenyl)carbamothioyl)-2-phenylacetamide] | 25.96 ± 0.05 µM | 169 ± 17.4 µM | 40.56 ± 0.05 µM |  | 37.76 ± 0.05 µM |  | 25.64 ± 0.08 µM |  |  |  |  |  |  |  |  |  |
| COc1cccc2c1C(=O)c1c(O)c3c(c(O)c1C2=O)C[C@@](O)(C(=O)CO)C[C@@H]3O[C@H]1C[C@H](N)[C@H](O)[C@H](C)O1 [DOX, doxorubicin, reference compound] | 8.2 ± 0.08 µM | 250 ± 26.6 µM | 8.11 ± 0.05 µM |  | 4.51 ± 0.26 µM |  |  |  |  |  |  |  |  |  |  |  |
| O=C(Cc1ccccc1)Nc1nc2ccccc2[nH]1 [Compound 3, N-(1H-Benzo[d]imidazol-2-yl)-2-phenylacetamide] | 10.42 ± 0.05 µM | 179 ± 18.8 µM | 17.29 ± 0.03 µM |  | 37.73 ± 0.02 µM |  | 6.59 ± 0.07 µM |  |  |  |  |  |  |  |  |  |
| Nc1ccccc1NC(=S)NC(=O)Cc1ccccc1 [Compound 2c, N-((2-Aminophenyl)carbamothioyl)-2-phenylacetamide] | 27.81 ± 0.04 µM | 145 ± 14.9 µM | 25.44 ± 0.04 µM |  | 47.66 ± 0.04 µM |  | 21.76 ± 0.08 µM |  |  |  |  |  |  |  |  |  |
| Oc1cccc(Nc2nnc(Cc3ccccc3)[nH]2)c1 [Compound 5c, 3-((5-Benzyl-4H-1,2,4-triazol-3-yl)amino)phenol] | 12.3 ± 0.04 µM | 146 ± 16.1 µM | 18.44 ± 0.04 µM | SI = 11.89 | 27.59 ± 0.04 µM | SI = 5.23 | 4.33 ± 0.04 µM | SI = 33.79 | SI = 7.93 | 0.14 µM | 0.24 ± 0.3 µM |  |  |  |  |  |
| Oc1cccc(N=c2nc(Cc3ccccc3)[nH]c(=S)[nH]2)c1 [Compound 8c, 6-Benzyl-4-((3-hydroxyphenyl)imino)-3,4-dihydro-1,3,5-triazine-2(1H)-thione] | 8.29 ± 0.03 µM | 189 ± 19.9 µM | 32.48 ± 0.04 µM | SI = 22.78 | 45.49 ± 0.04 µM | SI = 4.15 | 10.31 ± 0.04 µM | SI = 18.32 | SI = 5.81 |  |  |  |  |  |  |  |
| CC(C)N=c1nc(Cc2ccccc2)[nH]c(=S)[nH]1 [Compound 8a, 6-Benzyl-4-(isopropylimino)-3,4-dihydro-1,3,5-triazine-2(1H)-thione] | 25.46 ± 0.05 µM | 173 ± 18.9 µM | 36.55 ± 0.03 µM | SI = 6.81 | 59.84 ± 0.05 µM | SI = 2.91 | 13.75 ± 0.08 µM | SI = 12.61 | SI = 4.74 |  |  |  |  |  |  |  |
| CC(C)NC(=S)NC(=O)Cc1ccccc1 [Compound 2a, N-(Isopropylcarbamothioyl)-2-phenylacetamide] | 34.57 ± 0.06 µM | 121 ± 11.3 µM | 26.8 ± 2.21 µM |  | 57.85 ± 0.07 µM |  | 37.73 ± 0.08 µM |  |  |  |  |  |  |  |  |  |
| Oc1cccc(Nc2nc(Cc3ccccc3)nn2-c2ccccc2)c1 [Compound 6b, 3-((3-Benzyl-1-phenyl-1H-1,2,4-triazol-5-yl)amino)phenol] | 3.18 ± 0.03 µM | 178 ± 17.7 µM | 13.21 ± 0.06 µM | SI = 56.04 | 5.47 ± 0.02 µM | SI = 32.58 | 1.29 ± 0.03 µM | SI = 138.16 | SI = 13.49 | 0.09 ± 0.01 µM | 0.08 ± 0.05 µM | 0.0005 ± 5e-05 µM |  | 2.6 folds | 1 fold | 3.2 folds |
| c1ccc(Cc2nnc(Nc3nccs3)[nH]2)cc1 [Compound 5b, N-(5-Benzyl-4H-1,2,4-triazol-3-yl)thiazol-2-amine] | 8.27 ± 0.03 µM | 166 ± 17.4 µM | 18.22 ± 0.03 µM | SI = 20.04 | 38.49 ± 0.02 µM | SI = 4.30 | 4.18 ± 0.03 µM | SI = 39.65 | SI = 9.09 | 0.13 ± 0.11 µM | 0.22 ± 0.15 µM | 0.00062 ± 5e-05 µM |  |  |  |  |
| CC(C)Nc1nnc(Cc2ccccc2)[nH]1 [Compound 5a, 5-Benzyl-N-isopropyl-4H-1,2,4-triazol-3-amine] | 10.37 ± 0.04 µM | 175 ± 18.2 µM | 16.49 ± 0.05 µM | SI = 16.86 | 35.66 ± 0.04 µM | SI = 4.90 | 5.42 ± 0.05 µM | SI = 32.26 | SI = 10.60 | 0.17 ± 0.05 µM | 0.25 ± 0.01 µM | 0.00068 ± 1e-05 µM |  |  |  |  |
